Measured values taken from US20260245655A1, “METHODS FOR DETERMINING DRUG CANDIDATES” (MOSAIQUES DIAGNOSTICS AND THERAPEUTICS AG, priority 2023, published 2026).
“Also recorded” adds a separate entry of the source.

How the values were obtained:
[1] = tested on: BC cell lines: non-muscle invasive (RT112) and muscle invasive (T24, BFTC905, HT1376) cells; test: in vitro screening of drug candidates on growth/proliferation of BC cell lines; format: cell-based; settings: for proliferation rate of the BC cells (dose response curves): FIG. 2; for cell growth of BC cells: in vitro, panel of BC cell lines RT112, T24, BFTC905, HT1376
Procedure: The impact of the drug candidates onto the malignant phenotype of BC cells was assessed in vitro in a panel of multi-origin BC cell lines representing different stages during disease progression. These included non-muscle invasive (RT112) and muscle invasive (T24, BFTC905, HT1376) cells.
Accordingly, these compounds were selected for further investigation, here providing the response curves for four different BC cell lines. Representative response curves of the seven compounds are presented in FIG. 2, along with the respective IC50s. A clear impact was observed on the proliferation of the BC cells for all seven compounds.
FIG. 2. The dose response curves of cephaeline (i-ii), exemestane (iii-iv) and 1,4 chrysenequinone (v-vi) in the BC cell lines RT112, T24, HT1376 and BFTC905. The dose response curves of fluvoxamine (vii), amiodarone (viii), isradipine (ix) and amodiaquine (x) in the RT112 cells are also provided.

BFTC905 xenograft = BFTC905 xenograft mouse model; format: in vivo, NOD/SCID male mice; settings: start three days after cell injection, observed at least 17 days, vs DMSO control
Procedure: In vivo testing of exemestane, cephaeline and 1,4 chrysenequinone was performed in xenograft mouse models. Particularly, the model was established after injecting […] BFTC905 cells subcutaneously into the tail base of NOD/SCID male mice. Male mice were selected for these experiments since males are more prone to develop BC. The treatments started three days after the injections of the cancer cells. The treatment scheme was 30 mg/kg/every 3rd day for exemestane, 5 mg/kg/daily for cephaeline and 5 mg/kg/daily for 1,4 chrysenequinone. As controls were used animals injected with DMSO diluted in PBS (at a final concentration similar to the one of the compounds).
FIG. 3. The impact of cephaeline, exemestane and 1,4 chrysenequinone in vivo in BFTC905 xenograft mouse models.

[2] = BC cell lines RT112, T24, HT1376 and BFTC905

Row | SMILES | proliferation rate of the BC cells (dose response curves) [1, 2] | cell growth of BC cells [1] | impact on tumor establishment or growth (BFTC905 xenograft; 5 mg/kg/daily) | proliferation rate of the BC cells (dose response curves) ([1]; RT112 cells) | impact on tumor establishment or growth (BFTC905 xenograft; 30 mg/kg/every 3rd day)
1 | O=C1C=CC(=O)c2c1ccc1c2ccc2ccccc21 [1,4-chrysenequinone] | significantly decreased the proliferation rate | prevented cell growth at relatively low concentrations | no significant impact on tumour growth | – | –
2 | CCCCc1oc2ccccc2c1C(=O)c1cc(I)c(OCCN(CC)CC)c(I)c1 [amiodarone] | – | prevented cell growth at relatively low concentrations | – | significantly decreased the proliferation rate | –
3 | CCN(CC)Cc1cc(Nc2ccnc3cc(Cl)ccc23)ccc1O [amodiaquine] | – | prevented cell growth at relatively low concentrations | – | significantly decreased the proliferation rate | –
4 | C=C1C[C@@H]2[C@H](CC[C@]3(C)C(=O)CC[C@@H]23)[C@@]2(C)C=CC(=O)C=C12 [exemestane] | significantly decreased the proliferation rate | prevented cell growth at relatively low concentrations | – | – | clear impact on tumor establishment or growth; also recorded: significantly decreased tumor establishment or growth
5 | COCCCC/C(=N\OCCN)c1ccc(C(F)(F)F)cc1 [fluvoxamine] | – | prevented cell growth at relatively low concentrations | – | significantly decreased the proliferation rate | –
6 | COC(=O)C1=C(C)NC(C)=C(C(=O)OC(C)C)C1c1cccc2nonc12 (centres unmarked) [isradipine] | – | prevented cell growth at relatively low concentrations | – | significantly decreased the proliferation rate | –
